From paper PMC7029560, “Functional characterization of acyl-CoA binding protein in Neospora caninum” (Parasites & Vectors, 2020)

Target: T1, NcACBP (rNcACBP-GST) (Neospora caninum, UniProt F0VR91)
T1 construct: gene NCLIV_066640
T1 sequence (F0VR91 1-95): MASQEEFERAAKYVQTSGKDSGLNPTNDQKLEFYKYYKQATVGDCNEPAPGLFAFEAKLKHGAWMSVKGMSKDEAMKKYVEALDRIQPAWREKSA
Assay: fluorescence binding assay (SpectraMax M5, […] nm)
Settings: 1 uM GST-fusion protein, 0-0.3 uM ligand, PBS, room temperature, 5 min; labelled compound

Substance: NBD-C16:0-CoA
- Kd: 11.7 nM
